Data reported in US5821224A, “Antimicrobial peptides from bovine neutrophils” (Regents of the University of California, priority 1994, dated 1998).
Entries after “also recorded” stand apart in the source; their conditions may differ. Bridges are numbered along the chain shown (N, C = ends). Where no end group is shown, it is not given here. [ ]: non-standard residue; d: D form. pGlu = O=C1CC[C@@H](C(=O)O)N1

Assays:
S. aureus = details: background, earlier report; cited from earlier work
[1] = test system: Staphylococcus aureus 502A; assay: Radial diffusion antibacterial assay, S. aureus 502A; format: cell-based; details: 5 μl of peptide, 10 to 300 μg/ml, FIG. 7
Protocol: (§1) FIG. 7. Antibacterial activities of purified beta defensins. Nutrient agar plates seeded with E. coli ML35 (.oval-solid.) or S. aureus 502A (.smallcircle.) were used to assess antibacterial activity of 13 neutrophil beta-defensins in addition to rabbit defensin NP-1, bactenecin dodecapeptide, and indolicidin. Activity is expressed as the diameter of clearing (mm) resulting from the application of 5 μl of peptide at the concentrations shown.
(§2) Antimicrobial assay. Escherichia coli ML35 and Staphylococcus aureus 502A were utilized in a radial diffusion assay recently described by Lehrer et al. (J. Immunol. Meth. 167-173 (1991)). Bacteria were grown to mid-log phase in trypticase soy broth (TSB), diluted into 10 ml of warm (43° C.) 1% agarose containing 3 mg of TSB, buffered with 10 mM sodium phosphate, pH 7.4. Five μl of each peptide solution was pipetted into wells formed with a 4 mm cork bored and allowed to incubate at 37° C. for 3-4 hours. Plates were then overlaid with 10 ml of sterile 1% agar containing 2×TSB. Following incubation for 18 to 24 hours, the diameter of the clear zone surrounding each well was measured using a magnified transilluminator.
(§3) Antimicrobial activity of beta-defensins. The antibacterial activity of each beta-defensin was evaluated using Staphylococcus aureus 502A and Escherichia coil ML35 as test organisms. Using a sensitive radial diffusion assay, each peptide was tested against the two bacterial organisms with beta-defensin concentrations ranging from 10 to 300 μg/ml. The data presented in FIG. 7 reveal the dose-dependent activity of each peptide as measured by the size of the clear zone surrounding the sample well. In most cases, the log of the peptide concentration was linearly related to the diameter of the growth-free zone. […] In most cases, the zone of clearing was greater against E. coli than S. aureus.

Escherichia coli ML35 = assay: Radial diffusion antibacterial assay, E. coli ML35; format: cell-based; details: 5 μl of peptide, 10 to 300 μg/ml, FIG. 7
Protocol: as §1, §2, §3

E. coli = details: background, earlier report; cited from earlier work
Candida albicans 16820 = format: cell-based; details: 0 to 50 μg/ml, 60 minutes, FIG. 15
Protocol: (§4) Candida albicans 16820 and Cryptococcus neoformans 271A were grown with shaking for 24 hours or days, respectively, at 37° C. in Sabouraud Dextrose Broth (SDB, DIFCO). To obtain midlogarithmic phase organisms, 1.0 ml of overnight culture was inoculated into 50 ml of SDB and incubated for 3 hours (C. albicans) or overnight (C. neoformans) with shaking. The cultures were centrifuged at 10,000 rpm for 10 minutes at 4° C., washed with cold 10 mM phosphate buffer, pH 7.4, and resuspended in cold buffer to a concentration of 1×10^7 cells/ml. The fungicidal assay mixture contained 30 1 of the phosphate buffer, 10 μl (1×10^5 cells) of the fungal stock suspension, and 10 μl of peptide giving final peptide concentrations of 0 to 50 μg/ml. Incubations were carried out at 37° C. for 60 minutes, after which a 30 μl aliquot was removed and diluted 10, 100, and 1000-fold. Duplicate 100 μl samples of each dilution were spread onto SDB plates and incubated for 18 hours at 37° C. Plates were incubated for 1 or 2 days at 37° C. Surviving organisms were quantitated by colony counting using a Darkfield Colony Counter (Quebec).

[2] = test system: Cryptococcus neoformans 271A; assay: Fungicidal assay (colony counting), Cryptococcus neoformans 271A; format: cell-based; details: 60 minutes, FIG. 16; for fungicidal potency against C. neoformans: 0 to 50 μg/ml; for fungicidal effectiveness against C. neoformans at highest concentration: 50 μg/ml
Protocol: as §4

E. coli ML35 = assay: Bactericidal assay (colony counting), E. coli ML35; format: cell-based, Escherichia coli; details: below 50 μg/ml, 30 minutes, FIG. 14
Protocol: A 1:500 dilution of overnight cultures of E. coli ML35 and S. aureus 502A was incubated with shaking for 2.5 to 3 hours at 37° C. in trypticase soy broth (TSB). The bacteria were centrifuged at 10,000 rpm for 10 minutes at 4 c, washed with cold 10 mM sodium phosphate buffer, pH 7.4 and resuspended in cold phosphate buffer to a concentration of 1×10^7 cells/ml. Solutions of various concentrations of BNBDs were made up in 10 mM sodium phosphate buffer, pH 7.4. The bactericidal assay mixture contained 30 μl of the phosphate buffer, 10 μl (1×10^5 cells) of the bacterial stock solution, and 10 μl of peptide giving final peptide concentrations of 0 to 50 μg/ml. Incubations were carried out at 37° C. for 30 minutes, after which a 30 μl aliquot was removed and diluted 10, 100, and 1000-fold. Duplicate 100 μl samples of each dilution were spread into TSB plates and incubated for 18 hours at 37° C. Colonies were counted with the Darkfield Colony Counter (Quebec).

| Compound | antibacterial activity (diameter of clearing) against S. aureus [1] | antibacterial activity (diameter of clearing) against E. coli (Escherichia coli ML35) | also measured |
| --- | --- | --- | --- |
| CC[C@H](C)[C@H](N)C(=O)N[C@@H](CC(C)C)C(=O)N1CCC[C@H]1C(=O)N[C@@H](Cc1c[nH]c2ccccc12)C(=O)N[C@@H](CCCCN)C(=O)N[C@@H](Cc1c[nH]c2ccccc12)C(=O)N1CCC[C@H]1C(=O)N[C@@H](Cc1c[nH]c2ccccc12)C(=O)N[C@@H](Cc1c[nH]c2ccccc12)C(=O)N1CCC[C@H]1C(=O)N[C@@H](Cc1c[nH]c2ccccc12)C(=O)N[C@@H](CCCNC(=N)N)C(=O)N[C@@H](CCCNC(=N)N)C(N)=O [indolicidin, reference compound] | nearly as active as rabbit NP-1 | the most active peptide against E. coli | bactericidal activity against S. aureus (S. aureus): potent bactericidal activity; bactericidal activity against E. coli (E. coli): potent bactericidal activity |
| BNBD-1: bovine neutrophil beta-defensin 1, 38 residues, purified from neutrophil granules; sequence in FIG. 5 (SEQ ID NO: 1) (DFASCHTNGGICLPNRCPGHMIQIGICFRPRVKCCRSW; not fully specified (bridges); ends and bridges not checked) | all but BNBD-1 and BNBD-5 were active | – | – |
| BNBD-2: bovine neutrophil beta-defensin 2, 40 residues; identical to BNBD-3 without the pyroglutamyl-glycine extension (SEQ ID NO: 2) (VRNHVTCRINRGFCVPIRCPGRTRQIGTCFGPRIKCCRSW; disulfide 14-29, 19-37, 7-36) | equivalent antibacterial activity | equivalent antibacterial activity | – |
| BNBD-5: bovine neutrophil beta-defensin 5, 40 residues (SEQ ID NO: 5) | all but BNBD-1 and BNBD-5 were active | – | – |
| BNBD-7: bovine neutrophil beta-defensin 7, 40 residues (SEQ ID NO: 7) | most active beta-defensins | most active beta-defensins | – |
| BNBD-8: bovine neutrophil beta-defensin 8, 38 residues; identical to BNBD-9 without the pyroglutamyl-glycine extension (SEQ ID NO: 8) | differ in antibacterial potency | differ in antibacterial potency | – |
| BNBD-9: bovine neutrophil beta-defensin 9, 40 residues, N-terminal pyroglutamyl (SEQ ID NO: 9) ([pGlu]GVRNFVTCRINRGFCVPIRCPGHRRQIGTCLGPQIKCCR; also: cyclic, type of ring not given here) | most active beta-defensins; also recorded: the greater in vitro activity | most active beta-defensins; also recorded: the greater in vitro activity | – |
| BNBD-11: bovine neutrophil beta-defensin 11, 38 residues (SEQ ID NO: 11) (GPLSCRRNGGVCIPIRCPGPMRQIGTCFGRPVKCCRSW; disulfide 12-27, 17-35, 5-34; ends not checked) | – | – | fungicidal activity against C. albicans (Candida albicans 16820): completely inactive; fungicidal potency against C. neoformans [2]: substantially less active |
| BNBD-12: bovine neutrophil beta-defensin 12, 38 residues; disulfide connectivities determined (SEQ ID NO: 12) (GPLSCGRNGGVCIPIRCPVPMRQIGTCFGRPVKCCRSW; disulfide 12-27, 17-35, 5-34) | most active beta-defensins; also recorded: approximately equal | most active beta-defensins; also recorded: approximately equal | – |
| H-SGISGPLSCGRNGGVCIPIRCPVPMRQIGTCFGRPVKCCRSW (disulfide 9-38, 16-31, 21-39) [BNBD-13] | most active beta-defensins; also recorded: approximately equal | most active beta-defensins; also recorded: approximately equal | fungicidal effectiveness against C. neoformans at highest concentration [2]: equally effective |
| [pGlu]GVRNHVTCRINRGFCVPIRCPGRTRQIGTCFGPRIKCCRSW (disulfide 9-38, 16-31, 21-39) [BNBD-3] | equivalent antibacterial activity | equivalent antibacterial activity | fungicidal potency against C. neoformans [2]: the most potent; bactericidal potency against E. coli at lower concentrations (E. coli ML35): the greatest |
| [pGlu]RVRNPQSCRWNMGVCIPFLCRVGMRQIGTCFGPRVPCCRR (disulfide 9-38, 16-31, 21-39) [BNBD-4] | – | – | fungicidal effectiveness against C. neoformans at highest concentration [2]: equally effective |
